# What was measured:
# [1] = test system: patients with Wilson disease (WD); assay: Unified Wilson Disease Rating Scale (UWDRS) Part II total score (disability); type: in vivo, human; conditions: for UWDRS Part II (0-40) change from baseline, Mean (SD): pooled Studies 301 and 201; for UWDRS Part II (0-40) change from baseline, LSM / UWDRS Part II (0-40) change from baseline, Mean: Study 301 TTM long term set
# Source text: Unified Wilson Disease Rating Scale (Parts I, II, and III): The UWDRS is a clinical rating scale designed to evaluate the neurological manifestations of WD that generally can be divided into 3 movement disorder syndromes: dystonic, ataxic, and Parkinsonian syndrome. The UWDRS comprises 3 parts: UWDRS Part I (level of consciousness, item 1), UWDRS Part II (a patient-reported review of daily activity items [disability], items 2 to 11), and UWDRS Part III (a detailed neurological examination, items 12 to 34).
# The UWDRS Part I and Part III were assessed by a neurologist who is blinded to the treatment randomization, while UWDRS Part II may be reported to a non-blinded member of the study team by the patient, family member, or caregiver. The UWDRS has not been formally evaluated in adolescents. However, the components of Part I (level of consciousness), Part II (patient or caregiver-reported disability) and Part III (neurologic examination findings) were not fundamentally different between adults and adolescents. Patients aged 12 years and older were expected to be able to comply with UWDRS assessments.
# Pooled results from all such participants will be integrated together into one timeline to allow analyses of changes in UWDRS, long-term copper control, and long-term safety laboratory data.
# [2] = test system: participants with cirrhosis at baseline
# Source text: Study 205 is registered with ClinicalTrials.gov, number NCT04422431, and incorporated by reference in its entirety.
# [3] = test system: patients with WD; conditions: cited from earlier work
# [4] = test system: patients with Wilson disease (WD); conditions: in vivo
# [5] = test system: patients with Wilson disease (WD); assay: Clinical Global Impression-Improvement scale (CGI-I); type: in vivo, human; conditions: for Transformed CGI-I (−3 to 3), LSM / Transformed CGI-I (−3 to 3), Mean: Study 301 TTM long term set
# Source text: Clinical Global Impression-[…]: The Clinical Global Impression (CGI) rating scales were commonly used measures of symptom severity, treatment response, and the efficacy of treatments in treatment studies of adult and pediatric patients with mental disorders.
# While transformed CGI-I (TCGI-I) assesses how the WD patients' condition changed compared to baseline, CGI-I may indicate the overall clinical improvement of the patients in the study compared to baseline for each treatment arm.
# [6] = Subpopulation E, Week 48, TTM N=78, SoC N=39
substance,measurement,setting,value
bis-choline tetrathiomolybdate [TTM],UWDRS Part II score change (mean),"[1]; 0-48W, symptomatic patients",−1.7
same,"UWDRS Part II (0-40), Change from Baseline at 48 weeks, LSM",[1]; Study 301 Full Analysis Set,−0.1
same,"UWDRS Part II (0-40), Change from Baseline at 48 weeks, Mean",[1]; Study 301 Full Analysis Set,−0.6
same,"UWDRS Part II (0-40) change from baseline, Mean (SD)",[1]; TTM exposure 4 weeks,−0.3 (2.28)
same,"UWDRS Part II (0-40) change from baseline, Mean (SD)",[1]; TTM exposure 12 weeks,−0.4 (2.76)
same,"UWDRS Part II (0-40) change from baseline, Mean (SD)",[1]; TTM exposure 24 weeks,−0.4 (3.42)
same,"UWDRS Part II (0-40) change from baseline, Mean (SD)",[1]; TTM exposure 36 weeks,−0.9 (4.11)
same,"UWDRS Part II (0-40) change from baseline, Mean (SD)",[1]; TTM exposure 48 weeks,−1.2 (4.24)
same,"UWDRS Part II (0-40) change from baseline, Mean (SD)",[1]; TTM exposure 60 weeks,−1.4 (4.35)
same,"UWDRS Part II (0-40) change from baseline, Mean (SD)",[1]; TTM exposure 72 weeks,−1.9 (4.74)
same,"UWDRS Part II (0-40) change from baseline, Mean (SD)",[1]; TTM exposure 96 weeks,−2.5 (6.11)
same,"UWDRS Part II (0-40) change from baseline, Mean (SD)",[1]; TTM exposure 120 weeks,−3.1 (6.82)
same,"UWDRS Part II (0-40) change from baseline, Mean (SD)",[1]; TTM exposure 144 weeks,−3.3 (6.61)
same,"UWDRS Part II (0-40) change from baseline, Mean (SD)",[1]; TTM exposure 168 weeks,−6.2 (10.17)
same,"UWDRS Part II (0-40) change from baseline, Mean (SD)",[1]; TTM exposure 192 weeks,−5.9 (9.88)
same,"UWDRS Part II (0-40) change from baseline, Mean (SD)",[1]; TTM exposure 216 weeks,−7.1 (10.90)
same,"UWDRS Part II (0-40) change from baseline, Mean (SD)",[1]; TTM exposure 240 weeks,−6.6 (10.09)
same,"UWDRS Part II (0-40) change from baseline, Mean (SD)",[1]; TTM exposure 264 weeks,−6.2 (9.02)
same,"UWDRS Part II (0-40), Difference at 48 weeks, LSM","[1]; TTM vs SoC, P 0.4430",0.4
same,"UWDRS Part II (0-40) change from baseline, LSM",[1]; Week 24,−0.4
same,"UWDRS Part II (0-40) change from baseline, Mean",[1]; Week 24,−0.3
same,"UWDRS Part II (0-40) change from baseline, LSM",[1]; Week 48,−0.7
same,"UWDRS Part II (0-40) change from baseline, Mean",[1]; Week 48,−0.7
same,"UWDRS Part II (0-40) change from baseline, LSM",[1]; Week 72,−1.0
same,"UWDRS Part II (0-40) change from baseline, Mean",[1]; Week 72,−1.2
same,"UWDRS Part II (0-40) change from baseline, LSM",[1]; Week 96,−1.1
same,"UWDRS Part II (0-40) change from baseline, Mean",[1]; Week 96,−1.1
same,"UWDRS Part II (0-40) change from baseline, LSM",[1]; Week 120,−1.7
same,"UWDRS Part II (0-40) change from baseline, Mean",[1]; Week 120,−1.4
same,"UWDRS Part II (0-40) change from baseline, LSM",[1]; Week 144,−2.0
same,"UWDRS Part II (0-40) change from baseline, Mean",[1]; Week 144,−2.0
same,participants with cirrhosis at baseline who maintained liver function (albumin levels),[2]; in vivo,87%
same,cirrhotic participants whose albumin levels returned to the normal range,[2]; of the 13 who experienced changes in liver function,7 participants
same,reduction of mean serum cNCCcorrected compared with baseline,"[3]; Study 201, Week 24, p<0.0001",72%
same,patients with reversible liver function test elevations,"[3]; human, in vivo",39%
same,"ALT increased AE, % participants",[4],14.6%
same,"ALT increased AE, E events",[4],25
same,"ALT increased AE, N participants",[4],20
same,ALT increased adverse event,[4],14.6%
same,"AST increased AE, % participants",[4],2.9%
same,"AST increased AE, E events",[4],4
same,"AST increased AE, N participants",[4],4
same,"GGT increased AE, % participants",[4],2.2%
same,"GGT increased AE, E events",[4],3
same,"GGT increased AE, N participants",[4],3
same,"Hepatic enzyme increased AE, N participants",[4],3
same,"Hepatic function abnormal AE, % participants",[4],2.2%
same,"Hepatic function abnormal AE, E events",[4],3
same,"Hepatic function abnormal AE, N participants",[4],3
same,"Hyperbilirubinemia AE, % participants",[4],0.7%
same,"Hyperbilirubinemia AE, E events",[4],1
same,"Hyperbilirubinemia AE, N participants",[4],1
same,"Hypertransaminasemia AE, % participants",[4],1.5%
same,"Hypertransaminasemia AE, E events",[4],4
same,"Hypertransaminasemia AE, N participants",[4],2
same,"Jaundice AE, % participants",[4],0.7%
same,"Jaundice AE, E events",[4],1
same,"Jaundice AE, N participants",[4],1
same,"LFT abnormal AE, % participants",[4],1.5%
same,"LFT abnormal AE, E events",[4],2
same,"LFT abnormal AE, N participants",[4],2
same,"LFT increased AE, % participants",[4],2.9%
same,"LFT increased AE, E events",[4],4
same,"LFT increased AE, N participants",[4],4
same,"Liver disorder AE, % participants",[4],0.7%
same,"Liver disorder AE, E events",[4],1
same,"Liver disorder AE, N participants",[4],1
same,participants with ALT>3×ULN but≤5×ULN,[4],10.2%
same,participants with ALT>5×ULN but≤10×ULN,[4],7.3%
same,participants with ALT>10×ULN but≤20×ULN,[4],0.7%
same,participants with ALT>20×ULN,[4],2.9%
same,participants with post-baseline elevation of ALT ≥3× ULN,[4],29 participants
same,"T-CGI-I (−3 to 3, −3 is very much improved) at 48 weeks, LSM",[5]; Study 301 Full Analysis Set,−0.7
same,"T-CGI-I (−3 to 3, −3 is very much improved) at 48 weeks, Mean",[5]; Study 301 Full Analysis Set,−0.7
same,"Transformed Global Improvement (CGI-I), Change from Baseline, LSM","[5]; Subpopulation E, Week 48",−0.7
same,"Transformed Global Improvement (CGI-I), Change from Baseline, LSM Diff (TTM vs SoC)","[5]; Subpopulation E, Week 48",−0.5
same,"Transformed Global Improvement (CGI-I), Change from Baseline, Max",[5]; [6],1
same,"Transformed Global Improvement (CGI-I), Change from Baseline, Mean",[5]; [6],−0.7
same,"Transformed Global Improvement (CGI-I), Change from Baseline, Median",[5]; [6],0.0
same,"Transformed Global Improvement (CGI-I), Change from Baseline, Min",[5]; [6],"−3,"
same,"Transformed Global Improvement (CGI-I), Change from Baseline, Q1",[5]; [6],"−1.0,"
same,"Transformed Global Improvement (CGI-I), Change from Baseline, Q3",[5]; [6],0.0
same,"T-CGI-I, Difference at 48 weeks, LSM","[5]; TTM vs SoC, P 0.0316",−0.3
same,"CGI-I, LSM difference (SE) TTM versus SoC","[5]; W0-W48, cohort 1 incomplete response or intolerant, p=0.0051",−0.4 (0.15)
same,"Transformed CGI-I (−3 to 3), LSM",[5]; Week 24,−0.6
same,"Transformed CGI-I (−3 to 3), Mean",[5]; Week 24,−0.5
same,"Transformed CGI-I (−3 to 3), LSM",[5]; Week 48,−0.8
same,"Transformed CGI-I (−3 to 3), Mean",[5]; Week 48,−0.7
same,"Transformed CGI-I (−3 to 3), LSM",[5]; Week 72,−0.6
same,"Transformed CGI-I (−3 to 3), Mean",[5]; Week 72,−0.5
same,"Transformed CGI-I (−3 to 3), LSM",[5]; Week 96,−0.6
same,"Transformed CGI-I (−3 to 3), Mean",[5]; Week 96,−0.5
same,"Transformed CGI-I (−3 to 3), LSM",[5]; Week 120,−0.7
same,"Transformed CGI-I (−3 to 3), Mean",[5]; Week 120,−0.7
same,"Transformed CGI-I (−3 to 3), LSM",[5]; Week 144,−0.8
same,"Transformed CGI-I (−3 to 3), Mean",[5]; Week 144,−0.7

# Reference: patent publication US20260216238A1, “TETRATHIOMOLYBDIC ACID FOR USE IN TREATING COPPER METABOLISM-ASSOCIATED DISEASES OR DISORDERS (WILSON DISEASE)” (Alexion Pharmaceuticals, Inc., priority 2023, published 2026)
